From ChEMBL document CHEMBL3045602, “Synthesis and antimicrobial activity of novel derivatives of Biginelli pyrimidines” (2012)
≈ marks a conversion by molar mass, not a printed value.

Assays:
Format in all cases: functional
[1] = test system: Listeria monocytogenes; assay: Antimicrobial activity against Listeria monocytogenes PTCC 1165 after 24 hr by Alamar blue assay; settings: PTCC 1165, 24 h
[2] = test system: Candida albicans; assay: Antimicrobial activity against Candida albicans PTCC 5027 after 24 hr by Alamar blue assay; settings: PTCC 5027, 24 h
[3] = test system: Escherichia coli; assay: Antimicrobial activity against Escherichia coli PTCC 1338 after 24 hr by Alamar blue assay; settings: PTCC 1338, 24 h
[4] = test system: Aspergillus niger; assay: Antimicrobial activity against Aspergillus niger 5021 after 24 hr by Alamar blue assay; settings: Aspergillus niger, 5021, 24 h
[5] = test system: Bacillus subtilis; assay: Antimicrobial activity against Bacillus subtilis PTCC 1023 after 24 hr by Alamar blue assay; settings: PTCC 1023, 24 h
[6] = test system: Pseudomonas aeruginosa; assay: Antimicrobial activity against Pseudomonas aeruginosa PTCC 1074 after 24 hr by Alamar blue assay; settings: PTCC 1074, 24 h
[7] = test system: Salmonella enteritidis; assay: Antimicrobial activity against Salmonella enterica subsp. enterica serovar Enteritidis PTCC 1091 after 24 hr by Alamar blue assay; settings: PTCC 1091, 24 h
[8] = test system: Staphylococcus aureus; assay: Antimicrobial activity against Staphylococcus aureus PTCC 1337 after 24 hr by Alamar blue assay; settings: PTCC 1337, 24 h

MIC [1] [µg/mL] | MIC [2] [µg/mL] | MIC [3] [µg/mL] | MIC [4] [µg/mL] | MIC [5] [µg/mL] | MIC [6] [µg/mL] | MIC [7] [µg/mL] | MIC [8] [µg/mL] | Structure (SMILES)
512 (≈ 1470 µM) | > 512 | > 512 | > 512 | 512 (≈ 1470 µM) | 512 (≈ 1470 µM) | 512 (≈ 1470 µM) | 256 (≈ 736 µM) | CC1=C(C(=O)Nc2ccc(Cl)cc2)C(c2cccs2)NC(=O)N1 (configuration not stated)
> 512 | 128 (≈ 273 µM) | 256 (≈ 546 µM) | 128 (≈ 273 µM) | > 512 | 256 (≈ 546 µM) | > 512 | > 512 | CSc1ncc(C2NC(=O)NC(C)=C2C(=O)Nc2ccccc2Cl)n1Nc1ccccc1 (configuration not stated)
512 (≈ 1650 µM) | > 512 | 512 (≈ 1650 µM) | > 512 | > 512 | > 512 | > 512 | 512 (≈ 1650 µM) | CC1=C(C(=O)OCC(C)C)C(c2cccs2)NC(S)=N1 (configuration not stated)
512 (≈ 1320 µM) | 64 (≈ 166 µM) | 256 (≈ 662 µM) | 64 (≈ 166 µM) | 512 (≈ 1320 µM) | 256 (≈ 662 µM) | 512 (≈ 1320 µM) | > 512 | CCOC(=O)C1=C(C)NC(=O)NC1c1cnc(SC)n1Cc1ccccc1 (configuration not stated)
> 512 | 256 (≈ 547 µM) | 256 (≈ 547 µM) | 256 (≈ 547 µM) | > 512 | 256 (≈ 547 µM) | > 512 | 256 (≈ 547 µM) | CSc1ncc(C2NC(=O)NC(C)=C2C(=O)Nc2ccc(Cl)cc2)n1Cc1ccccc1 (configuration not stated)
512 (≈ 1630 µM) | > 512 | > 512 | > 512 | > 512 | 512 (≈ 1630 µM) | 512 (≈ 1630 µM) | > 512 | CC1=C(C(=O)Nc2cccnc2)C(c2cccs2)NC(=O)N1 (configuration not stated)
> 512 | 32 (≈ 73.5 µM) | > 512 | 64 (≈ 147 µM) | > 512 | > 512 | > 512 | > 512 | CSc1ncc(C2NC(=O)NC(C)=C2C(=O)Nc2ccccn2)n1Nc1ccccc1 (configuration not stated)
> 512 | 64 (≈ 147 µM) | 256 (≈ 589 µM) | 128 (≈ 295 µM) | > 512 | 256 (≈ 589 µM) | > 512 | > 512 | CSc1ncc(C2NC(=O)NC(C)=C2C(=O)Nc2ccccn2)n1Cc1ccccc1 (configuration not stated)
> 512 | 256 (≈ 547 µM) | 512 (≈ 1090 µM) | 256 (≈ 547 µM) | > 512 | 512 (≈ 1090 µM) | > 512 | > 512 | CSc1ncc(C2NC(=O)NC(C)=C2C(=O)Nc2ccccc2Cl)n1Cc1ccccc1 (configuration not stated)
> 512 | 32 (≈ 73.5 µM) | 512 (≈ 1180 µM) | 64 (≈ 147 µM) | > 512 | 512 (≈ 1180 µM) | > 512 | > 512 | CSc1ncc(C2NC(=O)NC(C)=C2C(=O)Nc2cccnc2)n1Nc1ccccc1 (configuration not stated)
> 512 | 128 (≈ 343 µM) | 512 (≈ 1370 µM) | 128 (≈ 343 µM) | > 512 | 256 (≈ 686 µM) | 512 (≈ 1370 µM) | > 512 | COC(=O)C1=C(C)NC(=O)NC1c1cnc(SC)n1Nc1ccccc1 (configuration not stated)
> 512 | 32 (≈ 68.2 µM) | 512 (≈ 1090 µM) | 64 (≈ 136 µM) | > 512 | > 512 | 512 (≈ 1090 µM) | > 512 | CSc1ncc(C2NC(=O)NC(C)=C2C(=O)Nc2ccc(Cl)cc2)n1Nc1ccccc1 (configuration not stated)
512 (≈ 1630 µM) | > 512 | > 512 | > 512 | > 512 | 512 (≈ 1630 µM) | 512 (≈ 1630 µM) | 512 (≈ 1630 µM) | CC1=C(C(=O)Nc2ccccn2)C(c2cccs2)NC(=O)N1 (configuration not stated)
> 512 | 256 (≈ 547 µM) | > 512 | 128 (≈ 274 µM) | 256 (≈ 547 µM) | 256 (≈ 547 µM) | 256 (≈ 547 µM) | 128 (≈ 274 µM) | CSc1ncc(C2NC(=O)NC(C)=C2C(=O)Nc2cccc(Cl)c2)n1Cc1ccccc1 (configuration not stated)
> 512 | 64 (≈ 165 µM) | 256 (≈ 661 µM) | 128 (≈ 330 µM) | > 512 | 128 (≈ 330 µM) | 512 (≈ 1320 µM) | > 512 | CCOC(=O)C1=C(C)NC(=O)NC1c1cnc(SC)n1Nc1ccccc1 (configuration not stated)
512 (≈ 1650 µM) | > 512 | 256 (≈ 825 µM) | > 512 | 512 (≈ 1650 µM) | 512 (≈ 1650 µM) | > 512 | 512 (≈ 1650 µM) | CCCCOC(=O)C1=C(C)NC(=S)NC1c1cccs1 (configuration not stated)
> 512 | > 512 | > 512 | > 512 | > 512 | > 512 | > 512 | > 512 | CC1=C(C(=O)OC(C)C)C(c2cccs2)NC(S)=N1 (configuration not stated)
256 (≈ 736 µM) | > 512 | > 512 | > 512 | 512 (≈ 1470 µM) | > 512 | > 512 | 512 (≈ 1470 µM) | CC1=C(C(=O)Nc2cccc(Cl)c2)C(c2cccs2)NC(=O)N1 (configuration not stated)
> 512 | 128 (≈ 273 µM) | > 512 | 128 (≈ 273 µM) | > 512 | 512 (≈ 1090 µM) | > 512 | > 512 | CSc1ncc(C2NC(=O)NC(C)=C2C(=O)Nc2cccc(Cl)c2)n1Nc1ccccc1 (configuration not stated)
> 512 | 256 (≈ 687 µM) | 512 (≈ 1370 µM) | 256 (≈ 687 µM) | 512 (≈ 1370 µM) | 512 (≈ 1370 µM) | > 512 | 512 (≈ 1370 µM) | COC(=O)C1=C(C)NC(=O)NC1c1cnc(SC)n1Cc1ccccc1 (configuration not stated)
256 (≈ 736 µM) | > 512 | > 512 | > 512 | 256 (≈ 736 µM) | > 512 | > 512 | 512 (≈ 1470 µM) | CC1=C(C(=O)Nc2ccccc2Cl)C(c2cccs2)NC(=O)N1 (configuration not stated)
> 512 | 128 (≈ 295 µM) | 256 (≈ 589 µM) | 128 (≈ 295 µM) | 512 (≈ 1180 µM) | 256 (≈ 589 µM) | 512 (≈ 1180 µM) | 512 (≈ 1180 µM) | CSc1ncc(C2NC(=O)NC(C)=C2C(=O)Nc2cccnc2)n1Cc1ccccc1 (configuration not stated)

Structure (SMILES) | MIC [1] [µg/mL] | MIC [2] [µg/mL] | MIC [3] [µg/mL] | MIC [4] [µg/mL] | MIC [5] [µg/mL] | MIC [6] [µg/mL] | MIC [7] [µg/mL] | MIC [8] [µg/mL]
CC(=O)N1CCN(c2ccc(OCC3COC(Cn4ccnc4)(c4ccc(Cl)cc4Cl)O3)cc2)CC1 (configuration not stated) [KETOCONAZOLE] | – | 2 (≈ 3.76 µM) | – | 4 (≈ 7.53 µM) | – | – | – | –
O=C(O)c1cn(C2CC2)c2cc(N3CCNCC3)c(F)cc2c1=O [CIPROFLOXACIN] | 1 (≈ 3.02 µM) | – | – | – | 0.06 (≈ 0.181 µM) | – | 1 (≈ 3.02 µM) | 0.5 (≈ 1.51 µM)
